Test results from publication PMC4051630, “A Comparison of Protein Kinases Inhibitor Screening Methods Using Both Enzymatic Activity and Binding Affinity Determination” (PLoS ONE, 2014).

Key:
Experiment in all cases: Differential Scanning Fluorimetry (DSF) Tm shift
Assay type in all cases: binding
CDK2 + Cyclin E = biological target: T1, CDK2 + Cyclin E (Homo sapiens, UniProt P24941); details: CDK2 + Cyclin E; 2 µM protein, 10 µM inhibitor; average of 3 experiments, each in duplicate
T1 construct: CDK2 (P24941); 1–299; His-tag; made in house; host or cells: Escherichia coli

PAK4 Catalytic Domain = biological target: T2, PAK4 Catalytic Domain (Homo sapiens, UniProt O96013); details: 2 µM protein, 10 µM inhibitor, average of 3 experiments, each in duplicate
T2 construct: For all of them, we expressed and purified the catalytic domain separately; His-tag; made in house; host or cells: Escherichia coli

[1] = biological target: T3, STK3 Catalytic domain+SARAH (Homo sapiens, UniProt Q13188); details: 2 µM protein, 10 µM inhibitor, average of 3 experiments, each in duplicate
T3 construct: for 8, we also made a longer version containing one or more additional domains; His-tag; made in house; host or cells: Escherichia coli
T3 sequence (Q13188 1-491): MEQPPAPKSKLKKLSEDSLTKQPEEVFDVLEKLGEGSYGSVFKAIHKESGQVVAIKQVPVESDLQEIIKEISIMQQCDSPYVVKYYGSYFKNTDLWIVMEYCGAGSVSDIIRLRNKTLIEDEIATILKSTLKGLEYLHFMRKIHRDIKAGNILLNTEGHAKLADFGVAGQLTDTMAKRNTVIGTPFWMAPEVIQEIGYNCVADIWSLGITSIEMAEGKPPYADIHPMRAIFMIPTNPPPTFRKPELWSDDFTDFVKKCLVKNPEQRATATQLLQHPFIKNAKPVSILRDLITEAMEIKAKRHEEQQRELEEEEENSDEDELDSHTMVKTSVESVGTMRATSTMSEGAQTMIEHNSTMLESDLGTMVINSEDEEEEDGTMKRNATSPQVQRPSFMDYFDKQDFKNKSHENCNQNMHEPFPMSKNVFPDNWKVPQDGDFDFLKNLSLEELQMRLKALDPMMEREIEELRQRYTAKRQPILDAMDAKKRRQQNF

PAK7 Catalytic Domain = biological target: T4, PAK7 Catalytic Domain (Homo sapiens, UniProt Q9P286); details: 2 µM protein, 10 µM inhibitor, average of 3 experiments, each in duplicate
T4 construct: For all of them, we expressed and purified the catalytic domain separately; His-tag; made in house; host or cells: Escherichia coli

FES Catalytic Domain = biological target: T5, FES Catalytic Domain (Homo sapiens, UniProt P07332); details: 2 µM protein, 10 µM inhibitor, average of 3 experiments, each in duplicate
T5 construct: For all of them, we expressed and purified the catalytic domain separately; His-tag; made in house; host or cells: Escherichia coli

CHK2 Catalytic Domain = biological target: T6, CHK2 Catalytic Domain (Homo sapiens, UniProt O96017); details: 2 µM protein, 10 µM inhibitor, average of 3 experiments, each in duplicate
T6 construct: For all of them, we expressed and purified the catalytic domain separately; His-tag; made in house; host or cells: Escherichia coli

[2] = biological target: T7, PAK4 Catalytic Domain+PBD (Homo sapiens, UniProt O96013); details: 2 µM protein, 10 µM inhibitor, average of 3 experiments, each in duplicate
T7 construct: for 8, we also made a longer version containing one or more additional domains; His-tag; made in house; host or cells: Escherichia coli

FAK2 Catalytic Domain = biological target: T8, FAK2 Catalytic Domain (Homo sapiens, UniProt Q14289); details: 2 µM protein, 10 µM inhibitor, average of 3 experiments, each in duplicate
T8 construct: For all of them, we expressed and purified the catalytic domain separately; His-tag; made in house; host or cells: Escherichia coli

CDK2 + Cyclin A = biological target: T9, CDK2 + Cyclin A (Homo sapiens, UniProt P24941); details: CDK2 + Cyclin A; 2 µM protein, 10 µM inhibitor; average of 3 experiments, each in duplicate
T9 construct: CDK2 (P24941); 1–299; His-tag; made in house; host or cells: Escherichia coli

AKT3 Catalytic Domain = biological target: T10, AKT3 Catalytic Domain (Homo sapiens, UniProt Q9Y243); details: 2 µM protein, 10 µM inhibitor, average of 3 experiments, each in duplicate
T10 construct: AKT3 (Q9Y243); CD; His-tag; made in house; host or cells: Escherichia coli

DMPK Catalytic Domain = biological target: T11, DMPK Catalytic Domain (Homo sapiens, UniProt Q09013); details: 2 µM protein, 10 µM inhibitor, average of 3 experiments, each in duplicate
T11 construct: For all of them, we expressed and purified the catalytic domain separately; His-tag; made in house; host or cells: Escherichia coli
T11 sequence (Q09013 71-339 limits assumed): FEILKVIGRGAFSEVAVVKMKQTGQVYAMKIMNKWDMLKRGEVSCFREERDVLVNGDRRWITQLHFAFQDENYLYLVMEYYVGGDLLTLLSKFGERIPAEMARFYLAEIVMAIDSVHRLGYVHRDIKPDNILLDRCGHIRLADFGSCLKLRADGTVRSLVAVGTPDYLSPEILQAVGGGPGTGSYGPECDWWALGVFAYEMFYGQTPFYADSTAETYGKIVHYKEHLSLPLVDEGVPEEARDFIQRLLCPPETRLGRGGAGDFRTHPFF

STK3 Catalytic Domain = biological target: T12, STK3 Catalytic Domain (Homo sapiens, UniProt Q13188); details: 2 µM protein, 10 µM inhibitor, average of 3 experiments, each in duplicate
T12 construct: For all of them, we expressed and purified the catalytic domain separately; His-tag; made in house; host or cells: Escherichia coli
T12 sequence (Q13188 27-278 limits assumed): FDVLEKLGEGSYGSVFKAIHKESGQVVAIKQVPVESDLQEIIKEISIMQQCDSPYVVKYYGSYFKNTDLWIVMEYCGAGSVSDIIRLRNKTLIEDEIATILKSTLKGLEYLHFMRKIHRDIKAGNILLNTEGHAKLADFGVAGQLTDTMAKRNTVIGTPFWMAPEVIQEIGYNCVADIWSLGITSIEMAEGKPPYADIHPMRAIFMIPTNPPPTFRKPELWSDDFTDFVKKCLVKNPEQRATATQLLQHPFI

FES Catalytic Domain+SH2 = biological target: T13, FES Catalytic Domain+SH2 (Homo sapiens, UniProt P07332); details: 2 µM protein, 10 µM inhibitor, average of 3 experiments, each in duplicate
T13 construct: for 8, we also made a longer version containing one or more additional domains; His-tag; made in house; host or cells: Escherichia coli

[3] = biological target: SRC Catalytic Domain+SH2+SH3 (Homo sapiens, UniProt P12931); details: 2 µM protein, 10 µM inhibitor, average of 3 experiments, each in duplicate
Sequence of SRC Catalytic Domain+SH2+SH3 (P12931 84-523 limits assumed): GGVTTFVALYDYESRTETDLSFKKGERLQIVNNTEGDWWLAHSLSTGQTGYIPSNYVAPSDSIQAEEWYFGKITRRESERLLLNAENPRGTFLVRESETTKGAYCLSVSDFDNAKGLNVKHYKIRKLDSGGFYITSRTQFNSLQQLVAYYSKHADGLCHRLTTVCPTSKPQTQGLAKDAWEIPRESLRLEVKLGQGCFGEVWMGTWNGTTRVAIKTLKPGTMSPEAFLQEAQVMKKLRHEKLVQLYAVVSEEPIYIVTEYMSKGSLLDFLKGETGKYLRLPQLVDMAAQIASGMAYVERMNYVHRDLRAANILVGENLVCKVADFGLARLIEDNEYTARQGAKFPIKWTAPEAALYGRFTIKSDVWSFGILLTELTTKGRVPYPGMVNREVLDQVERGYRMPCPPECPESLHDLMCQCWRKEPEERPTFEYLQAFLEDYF

T8 sequence (Q14289 425-683 limits assumed): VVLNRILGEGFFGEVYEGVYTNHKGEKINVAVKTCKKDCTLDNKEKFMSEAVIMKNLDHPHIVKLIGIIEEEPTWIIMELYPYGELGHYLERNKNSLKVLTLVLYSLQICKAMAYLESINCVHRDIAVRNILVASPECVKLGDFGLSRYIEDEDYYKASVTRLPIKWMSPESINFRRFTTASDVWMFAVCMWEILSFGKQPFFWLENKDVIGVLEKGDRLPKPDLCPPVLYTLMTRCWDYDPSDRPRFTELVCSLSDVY
T7 sequence (O96013 whole entry, the tested form may be a part): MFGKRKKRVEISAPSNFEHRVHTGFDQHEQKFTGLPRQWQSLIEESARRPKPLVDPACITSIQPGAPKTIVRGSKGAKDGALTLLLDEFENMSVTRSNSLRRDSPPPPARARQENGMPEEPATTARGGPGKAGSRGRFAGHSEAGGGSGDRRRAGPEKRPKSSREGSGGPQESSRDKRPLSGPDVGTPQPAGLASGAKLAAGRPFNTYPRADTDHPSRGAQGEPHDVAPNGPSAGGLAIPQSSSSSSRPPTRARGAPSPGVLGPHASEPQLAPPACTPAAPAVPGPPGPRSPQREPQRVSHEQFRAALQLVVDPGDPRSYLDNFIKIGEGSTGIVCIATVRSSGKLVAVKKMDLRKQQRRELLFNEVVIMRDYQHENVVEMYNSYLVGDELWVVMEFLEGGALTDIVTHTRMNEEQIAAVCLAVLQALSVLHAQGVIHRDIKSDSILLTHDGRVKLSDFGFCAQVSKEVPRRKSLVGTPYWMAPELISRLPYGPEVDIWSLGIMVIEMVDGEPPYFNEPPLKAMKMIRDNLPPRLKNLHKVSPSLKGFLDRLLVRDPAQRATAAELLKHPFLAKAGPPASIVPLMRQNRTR
T6 sequence (O96017 220-486 limits assumed): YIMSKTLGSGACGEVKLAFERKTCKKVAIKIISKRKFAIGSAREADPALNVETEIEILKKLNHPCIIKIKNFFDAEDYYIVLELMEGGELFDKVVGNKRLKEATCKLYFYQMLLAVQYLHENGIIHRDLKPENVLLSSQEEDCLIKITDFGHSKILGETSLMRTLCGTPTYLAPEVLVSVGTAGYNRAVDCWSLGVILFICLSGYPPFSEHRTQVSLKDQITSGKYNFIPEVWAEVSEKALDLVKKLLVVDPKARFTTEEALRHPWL
T5 sequence (P07332 561-822 limits assumed): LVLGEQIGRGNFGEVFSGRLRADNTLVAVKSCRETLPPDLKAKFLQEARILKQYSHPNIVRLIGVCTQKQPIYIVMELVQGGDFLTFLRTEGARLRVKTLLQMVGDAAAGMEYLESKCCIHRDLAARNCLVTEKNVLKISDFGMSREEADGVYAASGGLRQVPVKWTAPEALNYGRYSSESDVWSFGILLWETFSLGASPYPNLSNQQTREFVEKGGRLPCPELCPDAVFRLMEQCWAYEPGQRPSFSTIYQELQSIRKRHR
T13 sequence (P07332 448-822 limits assumed): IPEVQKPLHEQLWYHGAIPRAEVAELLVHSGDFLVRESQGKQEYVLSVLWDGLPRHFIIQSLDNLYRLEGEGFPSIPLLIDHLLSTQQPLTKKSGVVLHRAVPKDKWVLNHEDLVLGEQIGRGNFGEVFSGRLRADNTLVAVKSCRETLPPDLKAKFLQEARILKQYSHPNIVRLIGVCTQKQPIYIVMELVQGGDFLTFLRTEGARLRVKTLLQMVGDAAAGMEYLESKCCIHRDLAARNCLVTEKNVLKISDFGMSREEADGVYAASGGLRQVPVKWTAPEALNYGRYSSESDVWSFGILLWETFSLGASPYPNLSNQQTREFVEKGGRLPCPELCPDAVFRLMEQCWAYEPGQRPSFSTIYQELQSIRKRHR
T4 sequence (Q9P286 449-700 limits assumed): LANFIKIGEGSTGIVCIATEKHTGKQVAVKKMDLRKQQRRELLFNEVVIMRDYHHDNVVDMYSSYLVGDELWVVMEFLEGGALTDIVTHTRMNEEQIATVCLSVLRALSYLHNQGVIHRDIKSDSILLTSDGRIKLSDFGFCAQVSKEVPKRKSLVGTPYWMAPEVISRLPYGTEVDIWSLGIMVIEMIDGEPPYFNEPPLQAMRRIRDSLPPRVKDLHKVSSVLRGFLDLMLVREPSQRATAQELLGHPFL
T2 sequence (O96013 321-572 limits assumed): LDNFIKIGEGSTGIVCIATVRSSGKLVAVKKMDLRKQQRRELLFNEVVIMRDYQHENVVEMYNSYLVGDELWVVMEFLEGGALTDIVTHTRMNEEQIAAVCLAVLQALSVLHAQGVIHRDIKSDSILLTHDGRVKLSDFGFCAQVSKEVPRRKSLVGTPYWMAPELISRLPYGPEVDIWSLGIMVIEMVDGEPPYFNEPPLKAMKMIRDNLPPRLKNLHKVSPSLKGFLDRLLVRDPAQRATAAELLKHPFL
T10 sequence (Q9Y243 122-479): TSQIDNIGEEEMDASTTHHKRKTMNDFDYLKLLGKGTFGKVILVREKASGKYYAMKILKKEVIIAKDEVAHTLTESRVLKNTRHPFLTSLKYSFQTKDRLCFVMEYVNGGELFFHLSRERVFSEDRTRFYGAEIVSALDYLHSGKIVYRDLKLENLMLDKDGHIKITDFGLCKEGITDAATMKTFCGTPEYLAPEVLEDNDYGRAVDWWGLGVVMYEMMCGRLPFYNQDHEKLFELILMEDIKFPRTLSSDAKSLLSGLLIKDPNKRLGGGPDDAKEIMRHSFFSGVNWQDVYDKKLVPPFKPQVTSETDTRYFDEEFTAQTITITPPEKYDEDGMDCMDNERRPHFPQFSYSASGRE

Melting temperature (Tm) shift (CDK2 + Cyclin E) [degrees Celcius]	Melting temperature (Tm) shift (PAK4 Catalytic Domain) [degrees Celcius]	Melting temperature (Tm) shift [1] [degrees Celcius]	Melting temperature (Tm) shift (PAK7 Catalytic Domain) [degrees Celcius]	Melting temperature (Tm) shift (FES Catalytic Domain) [degrees Celcius]	Melting temperature (Tm) shift (CHK2 Catalytic Domain) [degrees Celcius]	Melting temperature (Tm) shift [2] [degrees Celcius]	Melting temperature (Tm) shift (FAK2 Catalytic Domain) [degrees Celcius]	Melting temperature (Tm) shift (CDK2 + Cyclin A) [degrees Celcius]	Melting temperature (Tm) shift (AKT3 Catalytic Domain) [degrees Celcius]	Melting temperature (Tm) shift (DMPK Catalytic Domain) [degrees Celcius]	Melting temperature (Tm) shift (STK3 Catalytic Domain) [degrees Celcius]	Melting temperature (Tm) shift (FES Catalytic Domain+SH2) [degrees Celcius]	Compound	Melting temperature (Tm) shift [3] [degrees Celcius]
5.5	1.9	0.2	2.0	0.6	0.6	1.1	0.5	7.5	0.0	1.3	0.8	0.1	CC(C)c1nn(-c2c(Cl)cccc2Cl)c2nc(Cc3ccc(OCCO)cc3)[nH]c(=O)c12 [Cdk/Crk Inhibitor]	
0.2	0.4	1.3	0.2	1.6	4.5		0.8	0.1	2.9	0.5	2.6	0.5	O=C1NC(=O)c2c1c1c3ccccc3[nH]c1n1cncc21 [Isogranulatimide]	
0.3	1.1	1.3	0.7	2.6	5.2	1.0	1.0	1.2	0.1	1.4	2.0	0.9	O=C1c2ccccc2-c2n[nH]c3cccc1c23 [JNK Inhibitor II]	
2.0	1.4	0.4	1.1	1.1	0.8	3.9	0.0	3.6		0.3	0.3	0.2	CC(C)n1cnc2c(NCc3ccccc3O)nc(NCCCO)nc21 [Cdk Inhibitor, p35]	
0.0			0.0	0.0	0.0		0.1	0.0		0.2	0.0		CCN1/C(=C/C(C)=O)Sc2ccc(OC)cc21 [Cdc2-Like Kinase Inhibitor, TG003]	
0.1				0.0	0.1		0.0		0.0	0.3	0.2		O=C1NC(=O)C(=Cc2ccc3c(c2)OCO3)S1 [PI 3-Kγ Inhibitor VII]	
0.7	0.7					0.4				0.8			O=C1NC(=O)c2c1c1c3ccccc3[nH]c1c1[nH]c3cc(Br)ccc3c21 [Cdk4 Inhibitor]	
0.4		0.0		0.0	0.6			0.1	3.1				O=C1c2ccccc2-c2nc3nnnn3nc21 [PDK1/Akt/Flt Dual Pathway Inhibitor]	

Compound	Melting temperature (Tm) shift (CDK2 + Cyclin E) [degrees Celcius]	Melting temperature (Tm) shift (PAK4 Catalytic Domain) [degrees Celcius]	Melting temperature (Tm) shift [1] [degrees Celcius]	Melting temperature (Tm) shift (PAK7 Catalytic Domain) [degrees Celcius]	Melting temperature (Tm) shift (FES Catalytic Domain) [degrees Celcius]	Melting temperature (Tm) shift (CHK2 Catalytic Domain) [degrees Celcius]	Melting temperature (Tm) shift [2] [degrees Celcius]	Melting temperature (Tm) shift (FAK2 Catalytic Domain) [degrees Celcius]	Melting temperature (Tm) shift (CDK2 + Cyclin A) [degrees Celcius]	Melting temperature (Tm) shift (AKT3 Catalytic Domain) [degrees Celcius]	Melting temperature (Tm) shift (DMPK Catalytic Domain) [degrees Celcius]	Melting temperature (Tm) shift (STK3 Catalytic Domain) [degrees Celcius]	Melting temperature (Tm) shift (FES Catalytic Domain+SH2) [degrees Celcius]	Melting temperature (Tm) shift [3] [degrees Celcius]
CC(C)(C)c1nc2c3cc[nH]c(=O)c3c3cc(F)ccc3c2[nH]1 [JAK Inhibitor I]	0.0	0.2	3.2	0.2	0.1	8.8	0.2	3.0	0.0			2.1	0.1	
O=C1Nc2ccc(Cl)cc2C1=Cc1cc(Cl)c(O)c(Cl)c1 [PKR Inhibitor, Negative Control]	0.6	0.9	2.1	0.3	0.4	3.9	1.5				3.2	1.2	0.5	
O=c1c(O)c(-c2ccc(O)c(O)c2)oc2cc(O)c(O)c(O)c12 [Quercetagetin]	0.7	0.0	0.5	0.1	0.1	1.1	0.3	0.2	0.2	2.5		0.2	0.1	0.0
